Laboratory results published in US6461997B1, “Triazole sulfones having herbicidal activity” (Monsanto Technology LLC, priority 1999, dated 2002).

System: GALAP (catchweed bedstraw)
Assay: Pre-emergence herbicidal activity, cool season
Assay type: in vivo, Galium aparine
Conditions: lowest tested rate with 80% or greater inhibition; rates 300, 100, 30, 10 g/ha; about 14 days
Method in brief: (§1)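 Seeds sown in sterilised fertilised topsoil received surface-applied compound in 50:50 acetone/water, typically at 300, 100, 30 and 10 g/ha, then greenhouse-grown at 30/21° C (warm-season species) or 18/13° C (cool-season species). Percent inhibition versus untreated plants was scored at about 14 days, giving GR80; an asterisk marks activity short of 80% at the top rate.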

SMILES | Pre-emergence activity GR80, GALAP [g/ha]
CCCN(CC)C(=O)n1cnc(S(=O)(=O)C(F)(F)C(F)F)n1 [Example 63] | 30

System: POLCO (wild buckwheat)
Assay: Pre-emergence herbicidal activity, cool season
Assay type: in vivo, Polygonum convolvulus
Conditions: lowest tested rate with 80% or greater inhibition; rates 300, 100, 30, 10 g/ha; about 14 days
Method in brief: as §1

SMILES | Pre-emergence activity GR80, POLCO [g/ha]
CCCN(CC)C(=O)n1cnc(S(=O)(=O)C(F)(F)C(F)F)n1 [Example 63] | 300

System: SINAR (wild mustard)
Assay: Pre-emergence herbicidal activity, cool season
Assay type: in vivo, Sinapis arvensis
Conditions: lowest tested rate with 80% or greater inhibition; rates 300, 100, 30, 10 g/ha; about 14 days
Method in brief: as §1

SMILES | Pre-emergence activity GR80, SINAR [g/ha]
CCCN(CC)C(=O)n1cnc(S(=O)(=O)C(F)(F)C(F)F)n1 [Example 63] | 30

System: VERPE (creeping speedwell)
Assay: Pre-emergence herbicidal activity, cool season
Assay type: in vivo, Veronica persicaria
Conditions: lowest tested rate with 80% or greater inhibition; rates 300, 100, 30, 10 g/ha; about 14 days
Method in brief: as §1

SMILES | Pre-emergence activity GR80, VERPE [g/ha]
CCCN(CC)C(=O)n1cnc(S(=O)(=O)C(F)(F)C(F)F)n1 [Example 63] | 30

System: SASKR (russian thistle)
Assay: Pre-emergence herbicidal activity, cool season
Assay type: in vivo, Salsola kali
Conditions: lowest tested rate with 80% or greater inhibition; rates 300, 100, 30, 10 g/ha; about 14 days
Method in brief: as §1

SMILES | Pre-emergence activity GR80, SASKR [g/ha]
CCCN(CC)C(=O)n1cnc(S(=O)(=O)C(F)(F)C(F)F)n1 [Example 63] | 30

System: STEME (common chickweed)
Assay: Pre-emergence herbicidal activity, cool season
Assay type: in vivo, Stellaria media
Conditions: lowest tested rate with 80% or greater inhibition; rates 300, 100, 30, 10 g/ha; about 14 days
Method in brief: as §1

SMILES | Pre-emergence activity GR80, STEME [g/ha]
CCCN(CC)C(=O)n1cnc(S(=O)(=O)C(F)(F)C(F)F)n1 [Example 63] | 30

System: LAMPU (purple deadnettle)
Assay: Pre-emergence herbicidal activity, cool season
Assay type: in vivo, Lamium purpureum
Conditions: lowest tested rate with 80% or greater inhibition; rates 300, 100, 30, 10 g/ha; about 14 days
Method in brief: as §1

SMILES | Pre-emergence activity GR80, LAMPU [g/ha]
CCCN(CC)C(=O)n1cnc(S(=O)(=O)C(F)(F)C(F)F)n1 [Example 63] | 30

System: ALOMY (blackgrass)
Assay: Pre-emergence herbicidal activity, cool season
Assay type: in vivo, Alopecurus myosuroides
Conditions: GR80 = lowest tested rate (300, 100, 30, 10 g/ha) with 80% or greater inhibition; approx. 14 days after treating; 18/13° C.
Method in brief: as §1

SMILES | Pre-emergence activity (GR80) ALOMY [g/ha]
CCCN(CC)C(=O)n1cnc(S(=O)(=O)C(F)(F)C(F)F)n1 [Example 63] | 300

System: SETVI (green foxtail)
Assay: Pre-emergence herbicidal activity, cool season
Assay type: in vivo, Setaria viridis
Conditions: GR80 = lowest tested rate (300, 100, 30, 10 g/ha) with 80% or greater inhibition; approx. 14 days after treating; 18/13° C.
Method in brief: as §1

SMILES | Pre-emergence activity (GR80) SETVI [g/ha]
CCCN(CC)C(=O)n1cnc(S(=O)(=O)C(F)(F)C(F)F)n1 [Example 63] | 100

System: LOLMG (annual ryegrass)
Assay: Pre-emergence herbicidal activity, cool season
Assay type: in vivo, Lolium multiflorum
Conditions: GR80 = lowest tested rate (300, 100, 30, 10 g/ha) with 80% or greater inhibition; approx. 14 days after treating; 18/13° C.
Experimental: (§2) Tables 5 to 8 summarize results of tests conducted as described below to determine the pre-emergence herbicidal activity, in the form of a GR80 value, of illustrative compounds of this invention. […] Compounds of the invention were typically applied at rates of 300, 100, 30, and 10 g/ha. Where herbicidal activity was evident but 80% inhibition was not achieved at the highest rate tested, an asterisk (*) is shown in the following tables.
(§3) The pre-emergence tests were conducted by the following procedure. Topsoil was sieved to pass through a 1.27 cm screen. Fertilizer was added to the topsoil and the mixture was then sterilized by heating. The topsoil mixture was placed in a pot and compacted to a depth of 1.0 to 1.25 cm from the top of the pot. Seeds of each of several monocotyledonous and dicotyledonous annual plant species were placed on top of the soil. Additional soil was subsequently placed over the seeds to level-fill the pot. A known amount of each test compound dissolved or suspended in an appropriate organic solvent was diluted with a 50:50 mix of acetone and water and applied to the surface of the soil. After treatment the plants were placed in a greenhouse where they received 0.64 cm of overhead irrigation. All subsequent watering consisted of a light overhead mist and/or subirrigation as needed for germination and growth. Tables 5 and 6 below relate to warm season plant species which were placed after pre-emergence treatment in a greenhouse with a 30/21° C. day/night temperature regime. Tables 7 and 8 below relates to cool season plant species placed after pre-emergence treatment in a greenhouse or growth chamber with an 18/13° C. day/night temperature regime.
(§4) Approximately 14 days after planting and treating, the plants were observed and herbicidal efficacy recorded as percent inhibition by comparison with untreated plants.
(§5) The plant species usually regarded as weeds which were utilized in the tests are identified in the tables below according to the following legend, in which “d” indicates a dicotyledonous species and “m” a monocotyledonous species. All monocotyledonous species included in the tests herein are grasses.

SMILES | Pre-emergence activity (GR80) LOLMG [g/ha]
CCCN(CC)C(=O)n1cnc(S(=O)(=O)C(F)(F)C(F)F)n1 [Example 63] | 100

System: AVEFA (wild oat)
Assay: Pre-emergence herbicidal activity, cool season
Assay type: in vivo, Avena fatua
Conditions: GR80 = lowest tested rate (300, 100, 30, 10 g/ha) with 80% or greater inhibition; approx. 14 days after treating; 18/13° C.
Experimental: as §2, §3, §4, §5

SMILES | Pre-emergence activity (GR80) AVEFA [g/ha]
CCCN(CC)C(=O)n1cnc(S(=O)(=O)C(F)(F)C(F)F)n1 [Example 63] | 300

System: AGSST (creeping bentgrass)
Assay: Pre-emergence herbicidal activity, cool season
Assay type: in vivo, Agrostis stolonifera
Conditions: GR80 = lowest tested rate (300, 100, 30, 10 g/ha) with 80% or greater inhibition; approx. 14 days after treating; 18/13° C.
Method in brief: as §1

SMILES | Pre-emergence activity (GR80) AGSST [g/ha]
CCCN(CC)C(=O)n1cnc(S(=O)(=O)C(F)(F)C(F)F)n1 [Example 63] | 10
